Where two headings read alike, the source gives them in different places.
Legend:
Puccinia triticina = experiment: Wheat brown rust, whole-plant fungicidal activity (PUCCRT); assay type: in vivo, Puccinia triticina on wheat plants (variety 'Yuma'); details: 24 h, 1DP (1 day protectant), read-out: % Disease Control Rating PUCCRT
Procedure: Technical grades of materials were dissolved in acetone, which were then mixed with nine volumes of water (H2O) containing 110 ppm Triton X-100. The fungicide solutions were applied onto wheat seedlings using an automated booth sprayer to run-off. All sprayed plants were allowed to air dry prior to further handling. All fungicides were evaluated using the aforementioned method for their activity vs. all target diseases, unless stated otherwise.
Example B: Evaluation of Fungicidal Activity: Wheat Brown Rust (Puccinia triticina; Synonym: Puccinia recondita f sp. tritici; Bayer Code PUCCRT)
Wheat plants (variety ‘Yuma’) were grown from seed in a greenhouse in soil-less potting mix until the first leaf was fully emerged, with 7-10 seedlings per pot. These plants were inoculated with an aqueous spore suspension of Puccinia triticina after fungicide treatments. After inoculation, the plants were kept in a dark dew room with 100% relative humidity overnight to permit spores to germinate and infect the leaf. The plants were then transferred to a greenhouse for disease to develop. Fungicide formulation, application and disease assessment followed the procedures as described in Example A.

Phakopsora pachyrhizi = experiment: Asian soybean rust, whole-plant fungicidal activity (PHAKPA); assay type: in vivo; details: read-out: % Disease Control Rating PHAKPA
Procedure: Example C: Evaluation of Fungicidal Activity: Asian Soybean Rust (Phakopsora pachyrhizi; Bayer Code […]) Technical grades of materials were dissolved in acetone, which were then mixed with nine volumes of H2O containing 0.011% Tween-20. The fungicide solutions were applied onto soybean seedlings using an automated booth sprayer to run-off. All sprayed plants were allowed to air dry prior to further handling. Soybean plants (variety 'Williams 82') were grown in soil-less potting mix, with one plant per pot. Ten-day-old seedlings were used for testing. Plants were inoculated as described in Example A. Plants were incubated for 24 h in a dark dew room with 100% relative humidity then transferred to a growth room for disease to develop. Fungicide formulation and application were made as described in Example A. When disease symptoms were fully expressed, disease severity was assessed on the sprayed leaves on a scale of 0 to 100 percent. Percent disease control was calculated using the ratio of disease severity on treated plants relative to untreated plants.

Rhynchosporium commune = experiment: Leaf blotch of barley, whole-plant fungicidal activity (RHYNSE); assay type: in vivo; details: 24 h, 1DP (1 day protectant), read-out: % Disease Control Rating RHYNSE
Procedure: Technical grades of materials were dissolved in acetone, which were then mixed with nine volumes of water (H2O) containing 110 ppm Triton X-100. The fungicide solutions were applied onto wheat seedlings using an automated booth sprayer to run-off. All sprayed plants were allowed to air dry prior to further handling. All fungicides were evaluated using the aforementioned method for their activity vs. all target diseases, unless stated otherwise. Example D: Evaluation of Fungicidal Activity: Leaf Blotch of Barley (Rhynchosporium commune; Bayer Code […]) Barley plants (variety 'Harrington') were grown from seed in a greenhouse in soil-less potting mix until the first leaf was fully emerged, with 7-10 seedlings per pot. These plants were inoculated with an aqueous spore suspension of Rhynchosporium commune after fungicide treatments. After inoculation, the plants were kept in a dark dew room with 100% relative humidity for two days to permit spores to germinate and infect the leaf. The plants were then transferred to a greenhouse for disease to develop. Fungicide formulation and application were made as described in Example A. Disease assessment was conducted as described in Example A.

Zymoseptoria tritici = experiment: Septoria leaf blotch of wheat, whole-plant fungicidal activity (SEPTTR); assay type: in vivo, Zymoseptoria tritici on wheat plants (variety 'Yuma'); details: read-out: % Disease Control Rating SEPTTR
Procedure: Example A: Evaluation of Fungicidal Activity: Septoria Leaf Blotch of Wheat (Zymoseptoria tritici; Bayer Code […]) Technical grades of materials were dissolved in acetone, which were then mixed with nine volumes of water (H2O) containing 110 ppm Triton X-100. The fungicide solutions were applied onto wheat seedlings using an automated booth sprayer to run-off. All sprayed plants were allowed to air dry prior to further handling. All fungicides were evaluated using the aforementioned method for their activity vs. all target diseases, unless stated otherwise. Wheat plants (variety 'Yuma') were grown from seed in a greenhouse in soil-less potting mix until the first leaf was fully emerged, with 7-10 seedlings per pot. These plants were inoculated with an aqueous spore suspension of Zymoseptoria tritici either 3 days prior to fungicide treatment (3 day curative; 3DC) or 1 day after fungicide treatment (1 day protectant; 1DP). After inoculation the plants were kept in 100% relative humidity for three days to permit spores to germinate and infect the leaf. The plants were then transferred to a greenhouse for disease to develop. When disease symptoms were fully expressed on the 1st leaves of untreated plants, infection levels were assessed on a scale of 0 to 100 percent disease severity. Percent disease control was calculated using the ratio of disease severity on treated plants relative to untreated plants.

Structure (SMILES)	pest or weed control at 200 ppm (Puccinia triticina) [%]	pest or weed control at 200 ppm (Phakopsora pachyrhizi; 24 h, 1DP (1 day protectant)) [%]	pest or weed control at 200 ppm (Phakopsora pachyrhizi; 72 h, 3DC (3 day curative)) [%]	pest or weed control at 200 ppm (Rhynchosporium commune) [%]	pest or weed control at 200 ppm (Zymoseptoria tritici; 24 h, 1DP (1 day protectant)) [%]	pest or weed control at 200 ppm (Zymoseptoria tritici; 72 h, 3DC (3 day curative)) [%]
CCN(C)/C=N/c1cc(C)c(C(=O)Cc2cccc(OC(F)(F)F)c2)cc1C [Compound 34]	> 85	> 85	> 85	> 85	50 to 85	< 20
CCN(C)/C=N/c1cc(OC)c(C(=O)CC2CCCC2)cc1C [Compound 35]	> 85	> 85	> 85	> 85	50 to 85	< 20
CCN(C)/C=N/c1cc(C)c(C(=O)Cc2cccc(C(F)(F)F)c2F)cc1C [Compound 36]	> 85	> 85	> 85	50 to 85	–	< 20
CCN(C)/C=N/c1cc(OC)c(C(=O)Cc2c(F)cc(F)cc2F)cc1C [Compound 37]	> 85	> 85	> 85	< 20	> 85	50 to 85
Cc1cc(C(=O)CC2CCCCC2)c(C)cc1/N=C/N(C)CC(F)(F)F [Compound 38]	< 20	< 20	< 20	< 20	< 20	< 20
C=CCN(C)/C(S)=N/c1cc(C)c(C(=O)CC2CCCCC2)cc1C [Compound 45]	> 85	20 to 50	50 to 85	< 20	< 20	< 20
Cc1cc(C(=O)CC2CCCCC2)c(C)cc1/N=C(\S)N(C)CC(F)(F)F [Compound 46]	< 20	20 to 50	< 20	< 20	< 20	< 20
Cc1cc(C(=O)CC2CCCCC2)c(C)cc1/N=C(\S)N(C)C(C)C [Compound 47]	> 85	> 85	> 85	20 to 50	> 85	< 20
Cc1cc(C(=O)CC2CCCCC2)c(C)cc1/N=C(\S)N(C)C1CCCCC1 [Compound 48]	< 20	< 20	< 20	< 20	< 20	< 20
Cc1cc(C(=O)CC2CCCCC2)c(C)cc1/N=C(\S)N1CCCC1 [Compound 49]	> 85	> 85	50 to 85	< 20	20 to 50	< 20
Cc1cc(C(=O)CC2CCCCC2)c(C)cc1/N=C(\S)N1CCCCC1 [Compound 50]	> 85	> 85	> 85	< 20	> 85	20 to 50
Cc1cc(C(=O)CC2CCCCC2)c(C)cc1/N=C(\S)N(C)c1ccccc1 [Compound 51]	< 20	< 20	< 20	< 20	20 to 50	< 20
Cc1cc(C(=O)CC2CCCCC2)c(C)cc1/N=C(\S)N(C)C [Compound 52]	> 85	> 85	50 to 85	< 20	20 to 50	< 20
Cc1cc(C(=O)CC2CCCCC2)c(C)cc1/N=C(\S)N(C)Cc1ccccc1 [Compound 53]	< 20	< 20	< 20	< 20	< 20	< 20
Cc1cc(C(=O)CC2CCCCC2)c(C)cc1/N=C(\S)N(C)C1CC1 [Compound 54]	> 85	> 85	50 to 85	< 20	> 85	< 20
CCN(CC)/C(S)=N/c1cc(C)c(C(=O)CC2CCCCC2)cc1C [Compound 55]	> 85	> 85	> 85	< 20	50 to 85	< 20
Cc1cc(C(=O)CC2CCCCC2)c(C)cc1/N=C/N(C)Cc1ccccc1 [Compound 56]	20 to 50	< 20	< 20	< 20	< 20	< 20
Cc1cc(C(=O)CC2CCCCC2)c(C)cc1/N=C/N(C)C [Compound 57]	> 85	> 85	> 85	< 20	50 to 85	< 20

Reference: patent publication US20240000075A1, “FUNGICIDAL ARYL AMIDINES” (CORTEVA AGRISCIENCE LLC, priority 2020, published 2024)
